Data from BigSolDB 2.1.

CN(C)NC(=O)CCC(=O)O
solubility (mole fraction)
Conditions	283.15 K	288.15 K	293.15 K	298.15 K	303.15 K	308.15 K	313.15 K	318.15 K	323.15 K
in 2-butoxyethanol	0.000247	0.000346	0.000471	0.000632	0.000905	0.00126	0.00162	0.00213	0.00278
in 2-ethoxyethanol	0.00176	0.00228	0.00291	0.00382	0.00492	0.00621	0.00767	0.00954	0.012
in 2-methoxyethanol	0.00398	0.00519	0.00634	0.00784	0.0096	0.0116	0.014	0.0169	0.0203
in 2-propoxyethanol	0.000405	0.000617	0.000794	0.00108	0.00144	0.00184	0.00233	0.00304	0.00393
in DMF	0.0207	0.0245	0.0293	0.0329	0.0388	0.0449	0.0503	0.0568	0.0645
in NMP	0.037	0.042	0.0481	0.0552	0.063	0.0714	0.0813	0.09	0.1
in acetonitrile	0.000172	0.000226	0.000296	0.000386	0.000503	0.000653	0.000846	0.00109	0.00141
in ethanol	0.00275	0.00354	0.00437	0.00551	0.0069	0.00848	0.0102	0.0128	0.0164
in isopropanol	0.000326	0.00048	0.000752	0.0011	0.00159	0.0022	0.00302	0.00433	0.00579
in methanol	0.00823	0.0097	0.0116	0.014	0.0167	0.0196	0.0227	0.026	0.0301
in n-pentanol	0.000149	0.000191	0.00026	0.000344	0.000477	0.000634	0.000821	0.00109	0.00145
in n-propanol	0.000944	0.00121	0.00161	0.00217	0.00285	0.00367	0.00471	0.00615	0.00768
